Experimental data published in ChEMBL document CHEMBL4715899, “In-situ side-chain peptide cyclization as a breaker strategy against the amyloid aggregating peptide” (Bioorg Med Chem, 2021).
The source made the active and inactive calls. No cut-off for these calls is given here. Residues, ends and D or L forms follow the SMILES beside them. *: point of attachment. OBn = c1ccc(CO*)cc1

Experiments:
[1] = organism: Homo sapiens; test: Disruption of preformed amyloid beta (1 to 40) (unknown origin) aggregation assessed as reduction in fibril formation at protein to ligand concentration ratio of 1:1 to 1:5 after 4 to 7 days by Congo-Red staining based birefringence anlaysis; conditions: time 4-7 day
[2] = organism: Homo sapiens; test: Inhibition of amyloid beta (1 to 40) (unknown origin) aggregation assessed as fibril formation at protein to ligand concentration ratio of 1:1 to 1:5 after 7 days by Congo-Red staining based birefringence anlaysis; conditions: time 7.0 day
[3] = organism: Homo sapiens; test: Inhibition of amyloid beta (1 to 40) (unknown origin) aggregation assessed as fibril formation at protein to ligand concentration ratio of 1:1 to 1:5 after 7 days by TEM analysis; conditions: time 7.0 day
[4] = organism: Homo sapiens; test: Disruption of preformed amyloid beta (1 to 40) (unknown origin) aggregation assessed as reduction in fibril formation at protein to ligand concentration ratio of 1:1 to 1:5 after 7 days by FTIR analysis; conditions: time 7.0 day
[5] = Aggregation property of the compound in PBS buffer at pH 7.4 at 50 uM after 7 days by thioflavin-T fluorescence assay; type: physicochemical; conditions: pH 7.4, 168 h, time 7 day
[6] = organism: Homo sapiens; test: Inhibition of amyloid beta (1 to 40) (unknown origin) aggregation assessed as fibril formation at protein to ligand concentration ratio of 1:1 to 1:5 after 7 days by thioflavin-T fluorescence assay; conditions: time 7.0 day
[7] = organism: Homo sapiens; test: Disruption of preformed amyloid beta (1 to 40) (unknown origin) aggregation assessed as reduction in fibril formation at protein to ligand concentration ratio of 1:1 to 1:5 after 7 days by thioflavin-T fluorescence assay; conditions: time 7.0 day
[8] = organism: Homo sapiens; test: Inhibition of amyloid beta (1 to 40) (unknown origin) aggregation at protein to ligand concentration ratio of 1:1 to 1:5 after 7 days by CD spectroscopic analysis; conditions: time 7.0 day
[9] = organism: Homo sapiens; test: Disruption of preformed amyloid beta (1 to 40) (unknown origin) aggregation assessed as reduction in fibril formation at protein to ligand concentration ratio of 1:1 to 1:5 after 4 to 7 days by FTIR analysis; conditions: time 4-7 day
[10] = Amyloidogenic property of compound in PBS buffer at pH 7.4 assessed as fibrillar assembly at 50 uM after 7 days by TEM anlaysis; conditions: time 7.0 day
[11] = organism: Homo sapiens; test: Inhibition of amyloid beta (1 to 40) (unknown origin) aggregation at protein to ligand concentration ratio of 1:1 to 1:5 after 7 days by FTIR analysis; conditions: time 7.0 day
[12] = organism: Homo sapiens; test: Disruption of preformed amyloid beta (1 to 40) (unknown origin) aggregation assessed as reduction in fibril formation at protein to ligand concentration ratio of 1:1 to 1:5 after 7 days by CD spectroscopic analysis; conditions: time 7.0 day
[13] = Amyloidogenic property of compound in PBS buffer at pH 7.4 assessed as fibrillar assembly at 50 uM after 7 days by Congo-Red staining based birefringence anlaysis; conditions: time 7.0 day
[14] = organism: Homo sapiens; test: Inhibition of preformed amyloid beta (1 to 40) (unknown origin)-induced pore formation in large unilamellar vesicles at 10 days pretested 1:5 ratio of amyloid beta (1 to 40) to ligand concentration followed by LUV treatment and measured up to 172 hrs by carboxy-fluorescein dye assay; conditions: time 10.0 day
[15] = organism: Homo sapiens; test: Inhibition of preformed amyloid beta (1 to 40) (unknown origin)-induced pore formation in large unilamellar vesicles at 10 days pretested 1:5 ratio of amyloid beta (1 to 40) to ligand concentration followed by LUV treatment and measured up to 120 mins by carboxy-fluorescein dye assay; conditions: time 10.0 day
[16] = organism: Homo sapiens; test: Inhibition of amyloid beta (1 to 40) (unknown origin)-induced pore formation in large unilamellar vesicles at 10 days pretested 1:5 ratio of amyloid beta (1 to 40) to ligand concentration followed by LUV treatment and measured up to 72 hrs by carboxy-fluorescein dye assay; conditions: time 10.0 day
[17] = organism: Homo sapiens; test: Inhibition of amyloid beta (1 to 40) (unknown origin)-induced pore formation in large unilamellar vesicles at 10 days pretested 1:5 ratio of amyloid beta (1 to 40) to ligand concentration followed by LUV treatment and measured up to 120 mins by carboxy-fluorescein dye assay; conditions: time 10.0 day

Row | SMILES | Activity [1] | inhibition [2] | inhibition [3] | Activity [4] | Activity [5] | inhibition [6] | Activity [7] | inhibition [8] | Activity [9] | Activity [10] | inhibition [11] | Activity [12] | Activity [13] | inhibition [14] | inhibition [15] | inhibition [16] | inhibition [17]
1 | CC(=O)N[C@@H](CCCCN)C(=O)N[C@@H](C)C(=O)N[C@@H](CCC(=O)OCc1ccccc1)C(=O)N[C@@H](Cc1ccccc1)C(=O)N[C@@H](Cc1ccccc1)C(=O)N[C@@H](C)C(N)=O (Ac-KAE(OBn)FFA-NH2) | Active | Active | Active | Active | Not Active | Active | Active | Active | Active | inactive | Active | Active | inactive | – | – | – | –
2 | CC(=O)N[C@@H](CCCCN)C(=O)NCC(=O)N[C@@H](CCC(=O)OCc1ccccc1)C(=O)N[C@@H](Cc1ccccc1)C(=O)N[C@@H](Cc1ccccc1)C(=O)N[C@@H](C)C(N)=O (Ac-KGE(OBn)FFA-NH2) | Active | Active | Active | Active | Not Active | Active | Active | Active | Active | inactive | Active | Active | inactive | – | – | – | –
3 | CC(=O)N[C@@H](CCCCN)C(=O)N[C@@H](CC(C)C)C(=O)N[C@@H](CCC(=O)OCc1ccccc1)C(=O)N[C@@H](Cc1ccccc1)C(=O)N[C@@H](Cc1ccccc1)C(=O)N[C@@H](C)C(N)=O (Ac-KLE(OBn)FFA-NH2) | Active | Active | Active | Active | Not Active | Active | Active | Active | Active | inactive | Active | Active | inactive | Active | Active | Active | Active
